Read-outs that look alike come from different tables or passages of the source.
Columns and labels:
human soluble ENPP1 [1] = target: T1, human soluble ENPP1 (Homo sapiens, UniProt P22413); assay: ENPP1 activity assay using p-Nitrophenyl-5′-TMP as a substrate; assay type: biochemical
T1 construct: 20 ng of human soluble ENPP1
T1 sequence (P22413 103-925 limits assumed): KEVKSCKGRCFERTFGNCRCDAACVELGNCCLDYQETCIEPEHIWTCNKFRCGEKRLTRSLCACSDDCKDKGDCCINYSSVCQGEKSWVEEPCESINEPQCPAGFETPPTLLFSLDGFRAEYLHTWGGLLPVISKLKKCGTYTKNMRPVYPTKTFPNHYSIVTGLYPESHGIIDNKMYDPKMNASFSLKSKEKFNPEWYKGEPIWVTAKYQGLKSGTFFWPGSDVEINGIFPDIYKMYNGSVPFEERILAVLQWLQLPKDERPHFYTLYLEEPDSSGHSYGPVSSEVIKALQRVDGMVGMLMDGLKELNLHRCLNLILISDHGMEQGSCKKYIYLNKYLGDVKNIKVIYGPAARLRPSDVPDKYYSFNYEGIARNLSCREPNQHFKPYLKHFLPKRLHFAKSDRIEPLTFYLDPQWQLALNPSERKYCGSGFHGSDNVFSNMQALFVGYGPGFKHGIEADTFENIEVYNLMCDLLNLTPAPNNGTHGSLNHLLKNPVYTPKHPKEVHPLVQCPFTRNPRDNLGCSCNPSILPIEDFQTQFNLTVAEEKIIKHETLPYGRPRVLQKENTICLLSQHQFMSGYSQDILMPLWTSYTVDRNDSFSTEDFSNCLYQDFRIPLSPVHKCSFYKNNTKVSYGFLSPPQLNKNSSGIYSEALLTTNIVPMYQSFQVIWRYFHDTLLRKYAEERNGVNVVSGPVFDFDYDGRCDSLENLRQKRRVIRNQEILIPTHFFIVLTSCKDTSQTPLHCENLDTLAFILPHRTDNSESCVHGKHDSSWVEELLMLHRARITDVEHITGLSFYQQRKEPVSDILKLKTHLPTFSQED
Outline: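 Percent inhibition, set against uninhibited-enzyme and blank wells, was fitted to a four-parameter variable-slope model for IC50. Chromogenic read-out was p-nitrophenol released from TMP-pNP, added as a 2 mM […] solution for 1 h at RT. Before that, 20 ng soluble ENPP1 sat 30 min with compound.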

human soluble ENPP1 [2] = target: T1, human soluble ENPP1; assay: ENPP1 activity assay using p-Nitrophenyl-5′-AMP as a substrate; assay type: biochemical
Outline: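 Absorbance at 405 nm tracks p-nitrophenol from AMP-pNP hydrolysis after 1 h at room temperature, substrate added as 3 mM (2× final) following 30 min enzyme–compound preincubation. Enzyme: 35 ng human soluble ENPP1. IC50 fitted (variable-slope four-parameter) from percent inhibition normalized to max and blank.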

ENPP-1, MDA-MB-231 cells = target: T2, ENPP-1, MDA-MB-231 cells (Homo sapiens, UniProt P22413); assay: cell-based; settings: for inhibition at 20 µM: MDA-MB-231, read-out: % Inhibition (at 20 μM)
T2 sequence (P22413 1-925): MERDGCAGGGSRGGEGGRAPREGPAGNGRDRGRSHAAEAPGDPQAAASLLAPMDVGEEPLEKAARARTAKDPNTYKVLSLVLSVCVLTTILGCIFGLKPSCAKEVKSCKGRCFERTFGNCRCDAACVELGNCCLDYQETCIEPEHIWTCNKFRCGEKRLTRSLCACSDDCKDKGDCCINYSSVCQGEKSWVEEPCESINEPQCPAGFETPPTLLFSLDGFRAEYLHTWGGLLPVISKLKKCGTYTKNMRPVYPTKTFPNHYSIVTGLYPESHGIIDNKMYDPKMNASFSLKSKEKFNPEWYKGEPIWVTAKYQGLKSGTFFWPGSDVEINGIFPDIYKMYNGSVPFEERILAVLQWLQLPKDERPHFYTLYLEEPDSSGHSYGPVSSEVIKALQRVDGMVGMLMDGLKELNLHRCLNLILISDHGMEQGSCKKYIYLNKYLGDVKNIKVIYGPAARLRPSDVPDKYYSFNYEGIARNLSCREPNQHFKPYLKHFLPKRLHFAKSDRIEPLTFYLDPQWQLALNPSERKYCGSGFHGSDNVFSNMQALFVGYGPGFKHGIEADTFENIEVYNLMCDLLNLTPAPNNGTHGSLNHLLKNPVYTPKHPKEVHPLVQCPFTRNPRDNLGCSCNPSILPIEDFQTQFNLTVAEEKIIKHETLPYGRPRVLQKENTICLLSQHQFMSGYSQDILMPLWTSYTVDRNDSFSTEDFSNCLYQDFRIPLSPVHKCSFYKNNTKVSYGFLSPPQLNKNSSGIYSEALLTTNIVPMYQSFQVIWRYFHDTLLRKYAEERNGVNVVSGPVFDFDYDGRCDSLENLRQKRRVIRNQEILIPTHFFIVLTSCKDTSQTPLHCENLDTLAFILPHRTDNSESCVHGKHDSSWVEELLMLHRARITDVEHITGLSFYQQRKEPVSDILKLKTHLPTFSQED

ENPP-1, HEK293 cells = target: T3, ENPP-1, HEK293 cells (Homo sapiens, UniProt P22413); assay: Cellular enzymatic assay of ENPP-1 inhibitors using TMP-pNP as substrate, HEK 293 cells; assay type: cell-based
T3 construct: ENPP-1 were mainly expressed on the surface of cell membrane; endogenous in cells; host or cells: HEK293
T3 sequence (P22413 1-925): T2 sequence (P22413 1-925)
Experimental: ENPP-1 were mainly expressed on the surface of cell membrane where it hydrolytes 2′3′-cGAMP to generate 5′-GMP and 5′-AMP. ENPP-1 also has the ability to hydrolyzes artificial phosphoric acid ester TMP-pNP to nucleotide-5′-monophosphate and p-nitrophcnol there, which is a chromogenic product.
8 point of different concentrations of each inhibitor were prepared with the final assay concentrations starting at 20 μM. 3× series dilution by DMEM medium without FBS was applied. Prior to adding inhibitors, 75000 cells per well were incubated at 37° C., 5% CO2 in DMEM for 24 hours. After removing the supernatant medium, 50 μL inhibitor solution was added into each well with cultured cells and incubate at 37° C., 5% CO2 for 60 minutes.
The IC50 values for percent inhibition versus compound concentration are determined by fitting the inhibition curves using a four-parameter variable slope model in GraphPad Prism® 8.

Pharmacokinetics in mice = assay type: in vivo; settings: mouse, plasma, male CD-1 mice, 1 mg/kg, iv; for Vd: read-out: Vdss
Experimental: A dosing solution of test sample was prepared at 1.0 mg/mL in 5% DMSO/40% PEG400/55% water and administered to male CD-1 mice (4-6 weeks old, 20-30 grams, 3 animals each group) via intravenous (IV) bolus at 1 mg/kg and by oral gavage (PO) at 5 mg/kg. Blood samples (˜0.03 mL each time point) were collected via the jugular vein into tubes containing sodium heparin as the anticoagulant at 0.033, 0.083, 0.25, 0.5, 1, 2, 4, 8 and 24 hours post dose for IV administration and 0.083, 0.25, 0.5, 1, 2, 4, 8 and 24 hours post dose for PO administration. The blood samples were then centrifuged for 5 minutes in a centrifuge refrigerated at 4° C. The resultant plasma samples were analyzed using LC/MS/MS to determine concentrations of test sample. Non-compartmental model with WinNonlin (Phoenix™, version 8.0) software was used to calculate pharmacokinetic (PK) parameters.

[3] = HEK293, HEK 293 cells, at 20 μM, read-out: Inhibition (at 20 μM)
[4] = HEK293, read-out: Inhibition (at 20 μM)

AUC (Pharmacokinetics in mice) | clearance (Pharmacokinetics in mice) | half-life (Pharmacokinetics in mice) | Vd (Pharmacokinetics in mice) | SMILES | IC50 (human soluble ENPP1 [1]) | IC50 (human soluble ENPP1 [2]) | IC50 (ENPP-1, MDA-MB-231 cells) | inhibition at 20 µM (ENPP-1, MDA-MB-231 cells) | IC50 (ENPP-1, HEK293 cells) | inhibition at 20 µM (ENPP-1, HEK293 cells; [3]) | inhibition at 20 µM (ENPP-1, HEK293 cells; [4])
– | – | – | – | COc1ccc2c(ncc3ncn(Cc4ccc(NS(N)(=O)=O)cc4)c32)n1 [Compound 46, 4-((7-methoxy-1H-imidazo[4,5-c][1,8]naphthyridin-1-yl)methyl)phenyl sulfamide] | 5.2 nM | – | 1600 nM | 75% | 2400 nM | – | 85%
– | – | – | – | COc1cnc2c(c1)ncc1ncn(Cc3ccc(S(N)(=O)=O)cc3)c12 [Compound 49, 4-((7-methoxy-1H-imidazo[4,5-c][1,5]naphthyridin-1-yl)methyl)benzenesulfonamide] | 1.9 nM | 4.8 nM | 6000 nM | 67% | 10000 nM | 67% | –
– | – | – | – | COc1ccc2c(ncc3nc(C(F)(F)F)n(Cc4ccc(S(N)(=O)=O)cc4)c32)n1 [Compound 47, 4-((7-methoxy-2-(trifluoromethyl)-1H-imidazo[4,5-c][1,8]naphthyridin-1-yl)methyl)benzenesulfonamide] | 1 nM | – | 3400 nM | 72% | 5000 nM | 77% | –
303 ng·h/mL | 56 mL/min/kg | 1.4 h | 2.9 L/kg | COc1ccc2c(ncc3nc(C)n(Cc4ccc(S(N)(=O)=O)cn4)c32)n1 [Compound 72, 6-((7-methoxy-2-methyl-1H-imidazo[4,5-c][1,8]naphthyridin-1-yl)methyl)pyridine-3-sulfonamide] | 0.58 nM | 1.2 nM | 340 nM | 81% | – | – | –
215 ng·h/mL | 78 mL/min/kg | 2.5 h | 11 L/kg | COc1ccc2c(ncc3ncn([C@H](C)c4ccc(S(N)(=O)=O)cn4)c32)n1 [Compound 60, (R)-6-(1-(7-methoxy-1H-imidazo[4,5-c][1,8]naphthyridin-1-yl)ethyl)pyridine-3-sulfonamide] | 0.31 nM | 1.51 nM | 490 nM | 83% | – | – | –
271 ng·h/mL | 62 mL/min/kg | 1.4 h | 4.5 L/kg | COc1ccc2c(ncc3ncn(Cc4ccc(S(N)(=O)=O)c(F)c4)c32)n1 [Compound 61, 2-fluoro-4-((7-methoxy-1H-imidazo[4,5-c][1,8]naphthyridin-1-yl)methyl)benzenesulfonamide] | 0.53 nM | 1.9 nM | 780 nM | 80% | – | – | –
170 ng·h/mL | 100 mL/min/kg | 0.33 h | 2 L/kg | COc1ccc2c(ncc3cnn(Cc4ccc(S(N)(=O)=O)c(F)c4)c32)n1 [Compound 122a, 2-fluoro-4-((7-methoxy-1H-pyrazolo[4,3-c][1,8]naphthyridin-1-yl)methyl)benzenesulfonamide] | 1.6 nM | 4.3 nM | 1700 nM | 74% | – | – | –

SMILES | AUC (Pharmacokinetics in mice) | clearance (Pharmacokinetics in mice) | half-life (Pharmacokinetics in mice) | Vd (Pharmacokinetics in mice) | IC50 (human soluble ENPP1 [1]) | IC50 (human soluble ENPP1 [2]) | IC50 (ENPP-1, MDA-MB-231 cells) | inhibition at 20 µM (ENPP-1, MDA-MB-231 cells) | IC50 (ENPP-1, HEK293 cells) | inhibition at 20 µM (ENPP-1, HEK293 cells; [3]) | inhibition at 20 µM (ENPP-1, HEK293 cells; [4])
COc1ccc2c(ncc3ncn(Cc4ccc(S(N)(=O)=O)nc4)c32)n1 [Compound 41, 5-((7-methoxy-1H-imidazo[4,5-c][1,8]naphthyridin-1-yl)methyl)pyridine-2-sulfonamide] | 227 ng·h/mL | 74 mL/min/kg | 1.2 h | 4 L/kg | 0.21 nM | 0.9 nM | 310 nM | 81% | 660 nM | 96% | –
COc1ccc2c(ncc3ncn(Cc4ccc(S(N)(=O)=O)cn4)c32)n1 [Compound 40, 6-((7-methoxy-1H-imidazo[4,5-c][1,8]naphthyridin-1-yl)methyl)pyridine-3-sulfonamide] | 241 ng·h/mL | 70 mL/min/kg | 2.7 h | 7.3 L/kg | 0.15 nM | 0.23 nM | 65 nM | 85% | 130 nM | – | 96%
COc1ccc2c(ncc3ncn(Cc4ccc(S(N)(=O)=O)cc4)c32)n1 [Compound 39, 4-((7-methoxy-1H-imidazo[4,5-c][1,8]naphthyridin-1-yl)methyl)benzenesulfonamide] | 115 ng·h/mL | 115 mL/min/kg | 0.33 h | 3.1 L/kg | 0.25 nM | 0.42 nM | 400 nM | 82% | 730 nM | 94% | –

— patent publication US11673889B2, “Substituted imidazo[4,5-c][1,8]naphthyridines as phosphodiesterase inhibitors” (Nanjing Zhengxiang Pharmaceuticals Co., Ltd., priority 2019, dated 2023)
